pIC50: −log10 of the molar value. Active and inactive are the calls of the source. The rule behind the calls is not given here.
Key:
PANC-1 [1] = experiment: Cytotoxicity against human PANC-1 cells assessed as reduction in cell viability measured after 72 hrs by MTS assay; format: functional, cell-based; settings: PANC-1, 72 h
U-251 = experiment: Cytotoxicity against human U-251 cells assessed as reduction in cell viability measured after 72 hrs by MTS assay; format: functional, cell-based; settings: U-251, 72 h
K562 = experiment: Cytotoxicity against human K562 cells assessed as reduction in cell viability measured after 72 hrs by MTS assay; format: functional, cell-based; settings: K562, 72 h
[2] = Drug localization in mitochondria of human MCF7 cells at 25 uM measured after 2 hrs by mitotracker orange dye based microscopic analysis; format: ADME; settings: mcf7, 2 h
[3] = Drug localization in lysosomes of human MCF7 cells at 25 uM measured after 2 hrs by lysotracker red DND-99 dye based microscopic analysis; format: ADME, subcellular, Lysosome; settings: mcf7, 2 h
HCT-116 = experiment: Cytotoxicity against human HCT-116 cells assessed as reduction in cell viability measured after 72 hrs by MTS assay; format: functional, cell-based; settings: HCT-116, 72 h
NHDF = experiment: Cytotoxicity against NHDF cells assessed as reduction in cell viability measured after 72 hrs by MTS assay; format: cell-based; settings: Homo sapiens
MCF7 [4] = experiment: Cytotoxicity against human MCF7 cells assessed as reduction in cell viability measured after 72 hrs by MTS assay; format: functional, cell-based; settings: MCF7, 72 h
[5] = Dark toxicity in human HeLa cells assessed as reduction in cell viability measured after 4 hrs by resazurin dye based fluorescence assay
PANC-1 [6] = experiment: Up regulation of p53 expression in human PANC-1 cells at 5 uM measured after 24 hrs by Western blot analysis relative to control; format: functional, cell-based
MCF7 [7] = experiment: Up regulation of p53 expression in human MCF7 cells at 5 uM measured after 24 hrs by Western blot analysis; format: functional, cell-based
PANC-1 [8] = experiment: Induction of autophagy in human PANC-1 cells assessed as increase in LC3 expression at 25 uM measured after 24 hrs by muse cell analyzer based fluorescence assay relative to control; format: functional

Drug uptake [2]	Drug uptake [3]	SMILES	pIC50 (PANC-1 [1])	pIC50 (U-251)	pIC50 (K562)	pIC50 (HCT-116)	pIC50 (NHDF)	pIC50 (MCF7 [4])	IC50 at 4 h [5] [nM]	Activity (PANC-1 [6])	Activity (MCF7 [7])	fold change (FC) (PANC-1 [8])
Active	Active	CC1(C)c2ccccc2-c2ccc(-c3cn(-c4ccc(-c5cc(-c6ccccn6)nc(-c6ccccn6)c5)cc4)nn3)cc21	5.73	5.73	6.20	5.89	< 4.60	5.97	–	–	–	–
–	–	CCCCCCCCCCn1cc(-c2ccc(-c3cc(-c4cnccn4)nc(-c4cnccn4)c3)cc2)nn1	< 4.60	< 4.60	< 4.60	< 4.60	–	< 4.60	–	–	–	–
–	–	N#Cc1ccc(-c2cn(-c3ccc(-c4cc(-c5ccccn5)nc(-c5ccccn5)c4)cc3)nn2)cc1	6.04	5.74	5.80	5.88	5.69	6.43	–	–	–	–
–	–	CN(C)c1cc(-c2cccnc2)nc(-c2ccccn2)c1	–	–	–	–	–	–	19600	–	–	–
–	–	c1ccc(-c2cccc(-c3cccnc3)n2)nc1	–	–	–	–	–	–	35100	–	–	–
–	–	O=C(O)c1cc(-c2cccnc2)nc(-c2ccccn2)c1	–	–	–	–	–	–	50500	–	–	–
–	–	c1ccc(-c2cc(-c3ccc(-n4cc(-c5ccc6sc7ccccc7c6c5)nn4)cc3)cc(-c3ccccn3)n2)nc1	6.11	5.62	5.13	6.04	< 4.60	5.76	–	–	–	–
–	–	CCCCCCCCn1c2ccccc2c2cc(-c3cn(-c4ccc(-c5cc(-c6ccccn6)nc(-c6ccccn6)c5)cc4)nn3)ccc21	5.45	4.99	5.26	5.20	< 4.60	5.00	–	–	–	–
–	–	CCCCCOc1ccc(-c2cn(-c3ccc(-c4cc(-c5ccccn5)nc(-c5ccccn5)c4)cc3)nn2)cc1	6.43	6.22	5.75	6.31	< 4.60	6.06	–	–	–	–
–	–	c1ccc(-c2cn(-c3ccc(-c4cc(-c5ccccn5)nc(-c5ccccn5)c4)cc3)nn2)cc1	6.54	6.02	6.13	6.60	< 4.60	6.32	–	–	–	–
–	–	COc1cccc2c1C(=O)c1c(O)c3c(c(O)c1C2=O)C[C@@](O)(C(=O)CO)C[C@@H]3O[C@H]1C[C@H](N)[C@H](O)[C@H](C)O1 [DOXORUBICIN]	–	7.28	7.72	–	6.86	6.39	–	Active	Active	–
–	–	Cc1ccc(NC(=O)c2ccc(CN3CCN(C)CC3)cc2)cc1Nc1nccc(-c2cccnc2)n1 [IMATINIB]	–	–	–	–	–	–	–	–	–	2
–	–	CCCCCCCCCCn1cc(-c2ccc(-c3cc(-c4nccs4)nc(-c4nccs4)c3)cc2)nn1	< 4.60	< 4.60	< 4.60	< 4.60	–	< 4.60	–	–	–	–
–	–	c1ccc(-c2cc(-c3ccc(-n4cc(-c5ccc(-c6cccs6)s5)nn4)cc3)cc(-c3ccccn3)n2)nc1	5.65	5.44	5.71	6.09	< 4.60	5.75	–	–	–	–
–	–	Clc1cc(-c2cccnc2)nc(-c2ccccn2)c1	–	–	–	–	–	–	26500	–	–	–
–	–	COc1cc(-c2cccnc2)nc(-c2ccccn2)c1	–	–	–	–	–	–	40900	–	–	–
–	–	Oc1cn(-c2ccc(-c3cc(-c4ccccn4)nc(-c4ccccn4)c3)cc2)nn1	6.16	5.85	5.88	6.11	4.93	6.23	–	–	–	–
–	–	CCCCCCCCCCCCc1cn(-c2ccc(-c3cc(-c4ccccn4)nc(-c4ccccn4)c3)cc2)nn1	< 4.60	4.69	4.70	4.87	5.04	4.95	–	–	–	–

Source: ChEMBL document CHEMBL4706629, “New derivatives of 4'-phenyl-2,2':6',2″-terpyridine as promising anticancer agents” (Eur J Med Chem, 2021)
